Data: patent US20090176817A1, “Method of Treatment of Diarrhea-Predominant Irritable Bowel Syndrome in a Subject” (priority 2005, published 2009)
Marks after values point to notes of the source that are not given here.

Tests used:
[1] = Study S.241.1.103: 14C mass balance, 8 mg oral and IV; format: in vivo, human
Procedure: The extent of absorption, distribution, metabolism, and elimination of cilansetron has been examined in an open-label, randomized, two period, crossover, mass balance study in 6 healthy male subjects who were treated with a single oral and single […] (30-minute infusion) of 8 mg ^14C-labeled (50 K μCi) cilansetron, with a washout of at least 2 weeks between periods. The ^14C-cilansetron was appropriately labeled in the aromatic ring and the label was therefore not metabolically labile. Serial blood samples, urine collection, and fecal collection were performed up to 144 hours following each dose. ^14C-radioactivity was measured in plasma, whole blood, urine, and feces, and unchanged cilansetron was measured in plasma and urine. Identification of metabolites of cilansetron was performed in plasma, urine, and feces. The results of this study are presented in Table 2.7.2.3.15 and the mean concentration-time plots for ^14C-radioactivity and unchanged cilansetron are shown in FIG. 24 and FIG. 25.
Cilansetron and metabolite profiles in plasma, urine, and feces were evaluated using HPLC separation followed by determination of radioactivity using scintillation counting. Cilansetron, (4R)-hydroxy cilansetron, and (4S)-hydroxy cilansetron accounted for 29.3%, 25.7%, and 13.8% of the total radioactivity, respectively, in plasma at 6 hours after oral administration, and for 46.2%, 20.0% and 14.1%3 of the total radioactivity in plasma at 3 hours after IV administration. The cumulative percent of cilansetron and 4-hydroxy metabolites excreted in urine over a 48-hour interval following dosing was 0.5% and 32.8% of the dose, respectively, following oral dosing, and 1.1% and 31.9% of the dose following IV dosing. In the case of fecal excretion over a 96-hour postdose, cilansetron, (4R)-hydroxy cilansetron, and (4S)-hydroxy cilansetron accounted for 1.2%, 6.9%, and 4.6% of the dose following oral administration, and 1.3%, 5.1%, and 11.3% of the dose following IV administration.

[2] = Study S.241.1.109: interaction with ketoconazole 200 mg BID; format: in vivo, human; settings: for AUC(0-τ) / Cmax / Tmax: steady state; for AUC(0-τ): AUC(0-8); for AUC(0-τ) / Cmax: arith. mean; for Tmax: median
Procedure: In an open-label, randomized, parallel-group study in three groups of 12 healthy, male and female subjects (aged 19 to 45 years), subjects received a 2 mg single dose of cilansetron on Day 1, 2 mg TID on Days 2-13, and a 2 mg single dose on Day 14. […] All morning doses of cilansetron and enzyme inhibitors were administered immediately after a standard breakfast. […] For each treatment group, log-transformed cilansetron AUC(0-τ) and Cmax values on Day 14 (cilansetron+enzyme inhibitor) were compared statistically versus values on Day 7 (cilansetron alone).

[3] = Study S.241.1.110: pharmacokinetics in renal impairment, 2 mg TID; settings: for AUC(0-τ) / Cmax / T½ / Tmax / Cmin: cilansetron 2 mg TID; for AUC(0-τ) / Cmax / T½ / Cmin: mean (%CV); for Tmax: median; for Cmin: Day 6 morning predose value
Procedure: The effect of renal impairment on the pharmacokinetics of cilansetron was evaluated in a study excluding subjects with end-stage renal disease, and utilizing a single-center, open-label, multiple-dose, parallel group study in 13 male and 9 female subjects, aged 33-74 years. […] Healthy subjects were matched to renally-impaired subjects with respect to age, weight, gender, and smoking status. All subjects received oral cilansetron 2 mg TID on Days 1 to 5, and a single dose on the morning of Day 6. Blood samples for measurement of plasma pharmacokinetics of cilansetron and its 4-hydroxy metabolites were collected up to 24 hours following dosing on Day 6, and log-transformed pharmacokinetic parameters for these analytes were statistically compared between study groups. Serum concentrations of unbound cilansetron and its 4-hydroxy metabolites were also measured prior to dosing and at 1 and 1.5 hours postdose on Day 6.

[4] = Study S.241.1.107: pharmacokinetics in hepatic impairment, 8 mg TID; settings: for AUC(0-τ): AUC(0-8); for AUC(0-τ) / Cmax / T½: arith. mean (%CV); for Tmax: median
Procedure: The effect of hepatic impairment on the pharmacokinetics of cilansetron was evaluated in a multiple-dose, parallel group study in 14 healthy and 14 moderately to severely hepatically impaired male and female subjects, aged 41-70 years. Impaired subjects (Child-Pugh score 7 to 11) were matched to healthy subjects by age (±2 years), sex, menstrual status, and smoking history status. All subjects received oral cilansetron 8 mg TID on Days 1 to 5, and a single dose on the morning of Day 6. […] Blood samples were also collected at predose on Day 1, and at predose, 1 hour and 1.5 hours postdose on Day 6, for measurement of cilansetron protein binding in serum.

[5] = Cilansetron 2 mg TID + Ketoconazole 200 mg twice daily
[6] = Cilansetron 2 mg TID alone (ketoconazole group)
[7] = cilansetron + ketoconazole / cilansetron alone, ANOVA of log-transformed data
[8] = moderate renal impairment, Day 6
[9] = geometric LS mean ratio impaired/healthy, cilansetron 8 mg TID oral
[10] = healthy, cilansetron 8 mg TID oral
[11] = hepatically impaired, cilansetron 8 mg TID oral

## Cc1nccn1CC1CCc2c(c3cccc4c3n2CC[C@H]4O)C1=O (stereo partly drawn) [(4R)-hydroxy cilansetron]
[1]; 3 hours after IV administration
  Share of total radioactivity in plasma: 20.0%
[1]; 6 hours after oral administration
  Share of total radioactivity in plasma: 25.7%
[1]; IV
  Fecal excretion over 96 hours: 5.1 % of the dose
[1]; oral
  Fecal excretion over 96 hours: 6.9 % of the dose
[2]; [5]
  AUC(0-τ): 20.8 ng·h/mL
  Cmax: 5.11 ng/mL
  Tmax: 1.50 h
[2]; [6]
  AUC(0-τ): 12.2 ng·h/mL
  Cmax: 2.48 ng/mL
  Tmax: 2.00 h
[2]; [7]
  AUC(0-τ) Ratio (Treatment B/A): 176%
  Cmax Ratio (Treatment B/A): 209%
[3]; Day 6 1 h, Healthy
  Plasma Conc.: 3.90 (37) ng/mL
[3]; Day 6 1 h, Mild
  Plasma Conc.: 4.86 (39) ng/mL
[3]; Day 6 1 h, Moderate
  Plasma Conc.: 3.94 (32) ng/mL
[3]; Day 6 1 h, Severe
  Plasma Conc.: 7.67 (38) ng/mL
[3]; Day 6, geometric LS mean ratio (90% CI)
  AUC(0-τ) ratio Mild/Healthy: 118 (90, 153) %
[3]; Day 6, ratio (90% CI)
  AUC(0-τ) ratio Moderate/Healthy: 137 (104, 182) %
  AUC(0-τ) ratio Renal Combined/Healthy: 166 (136, 204)* %
  AUC(0-τ) ratio Severe/Healthy: 284 (215, 377)* %
  Cmax ratio Mild/Healthy: 134 (101, 177) %
  Cmax ratio Moderate/Healthy: 137 (102, 185) %
  Cmax ratio Renal Combined/Healthy: 158 (127, 196)* %
  Cmax ratio Severe/Healthy: 215 (159, 290)* %
  T½ ratio Mild/Healthy: 109 (84, 142) %
  T½ ratio Moderate/Healthy: 129 (97, 171) %
  T½ ratio Renal Combined/Healthy: 140 (114, 172)* %
  T½ ratio Severe/Healthy: 195 (147, 259)* %
[3]; Day 6 […], Healthy
  Plasma Conc.: 3.79 (20) ng/mL
[3]; Day 6 […], Mild
  Plasma Conc.: 3.86 (20) ng/mL
[3]; Day 6 […], Moderate
  Plasma Conc.: 4.75 (28) ng/mL
[3]; Day 6 […], Severe
  Plasma Conc.: 7.87 (38) ng/mL
[3]; healthy subjects, Day 6
  AUC(0-τ): 18.7 (21) ng · h/mL
  Cmax: 4.30 (33) ng/mL
  T½: 7.05 (21) h
  Tmax: 1.25 h
[3]; healthy subjects
  Cmin: 1.56 (24) ng/mL
[3]; in vivo
  Exposure increase with severe renal impairment: 2-3 fold
[3]; mild impairment
  Mean AUC(0-τ) increase vs healthy: 18%
  Mean Cmax increase vs healthy: 34%
[3]; mild renal impairment, Day 6
  AUC(0-τ): 21.6 (9) ng · h/mL
  Cmax: 5.66 (25) ng/mL
  T½: 7.93 (38) h
  Tmax: 1.25 h
[3]; mild renal impairment
  Cmin: 1.68 (24) ng/mL
[3]; moderate impairment
  Mean AUC(0-τ) increase vs healthy: 37%
  Mean Cmax increase vs healthy: 37%
[3]; [8]
  AUC(0-τ): 26.3 (34) ng · h/mL
  Cmax: 5.83 (28) ng/mL
  T½: 9.32 (36) h
  Tmax: 1.25 h
[3]; moderate renal impairment
  Cmin: 2.06 (40) ng/mL
[3]; severe impairment
  Mean AUC(0-τ) increase vs healthy: 184%
  Mean Cmax increase vs healthy: 115%
[3]; severe renal impairment, Day 6
  AUC(0-τ): 55.8 (45) ng · h/mL
  Cmax: 9.35 (39) ng/mL
  T½: 13.9 (30) h
  Tmax: 1.50 h
[3]; severe renal impairment
  Cmin: 4.36 (36) ng/mL
[4]; [9]
  AUC(0-τ) Ratio: 0.86
  Cmax Ratio: 0.70
[4]; [10]
  AUC(0-τ), Geom. LS Mean: 57.4 ng·h/mL
  Cmax, Geom. LS Mean: 13.2 ng/mL
  AUC(0-τ): 62.7 (32) ng · h/mL
  Cmax: 14.1 (28) ng/mL
  T½: 6.38 (18) h
  Tmax: 1.00 h
[4]; [11]
  AUC(0-τ), Geom. LS Mean: 49.4 ng·h/mL
  Cmax, Geom. LS Mean: 9.30 ng/mL
  AUC(0-τ): 53.7 (40) ng · h/mL
  Cmax: 11.1 (62) ng/mL
  T½: 10.0 (41) h
  Tmax: 1.50 h
[4]; in vivo
  AUC(0-τ) decrease with hepatic impairment: 14%
  Cmax decrease with hepatic impairment: 30%

## Cc1nccn1C[C@H]1CCc2c(c3cccc4c3n2CCC4)C1=O [Cilansetron, (R)-(−)-4,5,6,8,9,10-hexahydro-10-[(2-methyl-1H-imidazol-1-yl)methyl]-11H-pyrido-[3,2,1-jk]-carbazol-11-one]
[1]; human, in vivo, iv
  AUC(0-last): 999 (223) ng[-equiv] · h/mL
[1]; human, in vivo, iv, 8 mg
  AUC(0-inf): 1217 (299) ng[-equiv] · h/mL
[1]; human, in vivo, po
  AUC(0-last): 908 (244) ng[-equiv] · h/mL
  CL/F (blood): 2857 (1912) mL/min
  Cmax: 171 (63) ng[-equiv]/mL
[1]; human, in vivo, po, 8 mg
  AUC(0-inf): 1047 (248) ng[-equiv] · h/mL
[1]; male, human, in vivo
  Absorption calculated from percentage renal recovery: 99.8%
  Share of urinary excretion within 24 hours of dosing: ≥ 87%
[1]; male, human, in vivo, 144 h
  Dose recovered in urine as unchanged drug: < 1%
[1]; male, human, in vivo, iv
  AUC(0-inf): 209 ng·h/mL
  AUC(0-t): 200 ng·h/mL
  CL (plasma): 118 (42) mL/min
  Cumulative percent excreted in urine over 48 hours: 1.1 % of the dose
  Fecal excretion over 96 hours: 1.3 % of the dose
  Radioactivity in blood cells: 9.5 (4.1) %
  Recovery, Fecal: 28.9 (1.8) %
  Recovery, Total: 92.3 (1.5) %
  T½: 107 h
  Vd: 85.3 L
  Vz: 1001 (162) L
  half-life: 1.51 h
[1]; male, human, in vivo, iv, 3 h
  Share of total radioactivity in plasma: 46.2%
[1]; male, human, in vivo, iv, CL (blood)
  clearance: 1040 mL/min
[1]; male, human, in vivo, iv, CL (plasma)
  clearance: 655 mL/min
[1]; male, human, in vivo, po
  AUC(0-inf): 98.2 ng·h/mL
  AUC(0-t): 91.4 ng·h/mL
  Absorption of orally administered cilansetron: higher than 90%
  Cmax: 52.9 ng/mL
  Cumulative percent excreted in urine over 48 hours: 0.5 % of the dose
  Fecal excretion over 96 hours: 1.2 % of the dose
  Radioactivity in blood cells: 10.5 (5.7) %
  Recovery, Fecal: 27.5 (3.2) %
  Recovery, Total: 90.8 (2.2) %
  Tmax: 0.51 h
  Vd/F: 155 L
  Vz/F: 836 (275) L
  half-life: 1.23 h
[1]; male, human, in vivo, po, 6 h
  Share of total radioactivity in plasma: 29.3%
[1]; male, human, in vivo, po, Absolute Bioavailability
  bioavailability: 49%
